Laboratory results: patent US20070148051A1, “Chemical volatilization device” (Dainihon Jochugiku Co., Ltd., priority 2005, published 2007)

How the values were obtained:
[1] = system: harmful insects such as mosquitoes and midges; test: Experiment Example 2: device suspended in a doghouse, insecticidal effects; type: in vivo; settings: 70 mg Compound A retained, 1400 rpm, 8 hours per day for about 30 days
Excerpt: Two-dimensional mesh-like chemical-retaining fibers 2 were woven using twisted polyester fibers, and supportive connecting chemical-retaining fibers 3 (upper and lower widths: 2.5 mm), comprised of nylon fibers, were arranged in a state in which a columnar structure and a diagonal structure were overlapped based on the constitution of the aforementioned (8) shown in FIG. 8 to produce a disc-like chemical retainer 1 having an overall thickness in the vertical direction of 4.2 mm and an outer diameter of 4.5 cm.
70 mg of Compound A (2,3,5,6-tetrafluorobenzyl-2,2-dimethyl-3-(2,2-dichlorovinyl)cyclopropane carboxylate) was retained instead of the chemical used in Experiment Example 1 and activated for 240 hours.
This chemical retainer 1 was housed in the protective case 4 of Experiment Example 1, activated for 8 hours per day by suspending in a doghouse at a rotating speed of 1400 rpm, and said activation was continued for about 30 days.

[2] = system: mosquitoes; test: Experiment Example 1: chemical volatilization device activated, mosquito control; type: in vivo; settings: 40 mg Compound C dissolved in kerosene retained in chemical retainer, 1200 rpm, over about 120 hours
Excerpt: Two-dimensional mesh-like chemical-retaining fibers 2 were woven on both the upper and lower sides using twisted polyester fibers, and supportive connecting chemical-retaining fibers 3 (upper and lower widths: 3 mm), comprised of polyester fibers, were arranged between both sides based on a diagonal structure according to the constitution of the aforementioned (6) as shown in FIG. 6 to produce a disc-like chemical retainer 1 having an overall thickness in the vertical direction of 4.0 mm and an outer diameter of 4.0 cm.
The chemical retainer 1 was housed in a protective case 4 made of polycarbonate (outer diameter: 5.0 cm, thickness: 8 mm), and the protective case 4 employed a roughly circular cross-section for circumferential retaining frames 41.
In this type of chemical retainer 1, a chemical solution, in which 40 mg of Compound C (4-methoxymethyl-2,3,5,6-tetrafluorobenzyl-2,2-dimethyl-3-(1-propenyl)cyclopropane carboxylate) were dissolved in kerosene, was retained in said chemical retainer 1, and after housing in the protective case 4, was activated for 120 hours at a rotating speed of 1200 rpm.

Row | SMILES | insecticidal effects against harmful insects during continuous activation [1] | control of mosquitoes during activation [2]
1 | CC1(C)C(C=C(Cl)Cl)C1C(=O)OCc1c(F)c(F)cc(F)c1F (centres unmarked) [Compound A, 2,3,5,6-tetrafluorobenzyl-2,2-dimethyl-3-(2,2-dichlorovinyl) cyclopropane carboxylate] | stable insecticidal effects | –
2 | CC=CC1C(C(=O)OCc2c(F)c(F)c(COC)c(F)c2F)C1(C)C (centres unmarked) [Compound C, 4-methoxymethyl-2,3,5,6-tetrafluorobenzyl-2,2-dimethyl-3-(1-propenyl)cyclopropane carboxylate] | – | effectively controlled
